Consider five compounds from BindingDB's records for doi:10.1016/j.bmcl.2018.11.048 (Advinus Therapeutics, 2019).

The target in assay [1] is T1, Fatty-acid amide hydrolase 1 (Homo sapiens, UniProt O00519).
T1 sequence (O00519 whole entry): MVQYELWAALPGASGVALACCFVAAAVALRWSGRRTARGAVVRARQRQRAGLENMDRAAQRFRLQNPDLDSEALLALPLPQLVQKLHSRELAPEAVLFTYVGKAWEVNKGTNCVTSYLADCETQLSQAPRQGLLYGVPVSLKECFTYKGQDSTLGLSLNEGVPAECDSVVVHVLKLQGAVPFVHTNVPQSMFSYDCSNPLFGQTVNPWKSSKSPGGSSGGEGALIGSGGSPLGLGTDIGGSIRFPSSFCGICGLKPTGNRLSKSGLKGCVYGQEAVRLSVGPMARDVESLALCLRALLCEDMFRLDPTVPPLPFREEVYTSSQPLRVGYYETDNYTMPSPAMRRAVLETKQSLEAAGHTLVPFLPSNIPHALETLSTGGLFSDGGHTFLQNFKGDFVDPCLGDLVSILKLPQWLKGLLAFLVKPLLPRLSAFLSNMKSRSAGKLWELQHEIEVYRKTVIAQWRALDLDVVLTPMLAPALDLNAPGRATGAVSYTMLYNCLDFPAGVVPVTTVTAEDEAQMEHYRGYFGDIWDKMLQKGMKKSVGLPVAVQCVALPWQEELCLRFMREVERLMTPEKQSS
In words: Inhibition of human transmembrane domain deficient FFAH expressed in Escherichia coli using AAMCA as substrate incubated for 1 min measured for 50 mins by fluorescence assay.

Assay [2] concerns the target T2, Fatty-acid amide hydrolase 1 [30-579] (Rattus norvegicus, UniProt P97612).
T2 construct: 30-579
T2 sequence (P97612 whole entry): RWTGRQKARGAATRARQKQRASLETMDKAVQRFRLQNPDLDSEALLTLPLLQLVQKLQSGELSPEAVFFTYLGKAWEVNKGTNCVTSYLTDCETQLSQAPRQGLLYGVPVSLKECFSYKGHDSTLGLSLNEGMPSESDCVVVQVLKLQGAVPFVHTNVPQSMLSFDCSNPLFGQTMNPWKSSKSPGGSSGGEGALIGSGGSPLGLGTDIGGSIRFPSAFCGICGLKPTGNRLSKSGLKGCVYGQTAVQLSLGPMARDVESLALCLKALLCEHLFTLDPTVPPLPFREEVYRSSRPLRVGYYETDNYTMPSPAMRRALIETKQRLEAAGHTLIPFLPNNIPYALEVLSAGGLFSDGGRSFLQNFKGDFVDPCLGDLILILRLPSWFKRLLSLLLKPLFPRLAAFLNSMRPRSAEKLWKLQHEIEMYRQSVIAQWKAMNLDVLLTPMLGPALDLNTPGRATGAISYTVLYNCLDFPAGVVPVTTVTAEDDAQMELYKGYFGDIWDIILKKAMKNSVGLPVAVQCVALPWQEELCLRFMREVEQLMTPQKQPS
In words: Inhibition of rat FFAH expressed in Escherichia coli using AAMCA as substrate incubated for 1 min measured for 50 mins by fluorescence assay.

As usually defined, the IC50 is the concentration needed to halve the response being measured. A low value points to greater potency in that assay. As for `O=C(NC1CCC(=Cc2cccc(Oc3ccc(C(F)(F)F)cn3)c2)CC1)c1cn[nH]c1` (stereo unspecified) [US9682953, 20.A-12], half-maximal inhibition in assay [1] (IC50) required 2.6 nM. As for `Cc1cc(C(=O)NC2CCC(=Cc3cccc(Oc4ccc(C(F)(F)F)cn4)c3)CC2)cnc1N` (stereo unspecified) [US9682953, 20.A-5], the 50% inhibitory concentration (IC50) in assay [2] turned out to be 29 nM; in assay [1], 3 nM. In turn, `O=C(NC1CCC(=Cc2cccc(Oc3ccc(C(F)(F)F)cn3)c2)CC1)c1cncnc1` (stereo unspecified) [US9682953, 20.A-20] returned an IC50 in assay [1] of 2.6 nM. In assay [1], `CCOC(=O)Cn1nc2c(c1C(C)C)C(c1ccc(Cl)cc1C)N(c1cc(Cl)ccc1C)C2=O` (stereo unspecified) [US9682953, 20.A-1] had an IC50 of 2.2 nM. On the same count and under the same terms, the figure for `O=C(NC1CCC(=Cc2cccc(Oc3ccc(C(F)(F)F)cn3)c2)CC1)c1cnc2[nH]ccc2c1` (stereo unspecified) [US9682953, 20.A-13] is 2.2 nM.
